For the data set the following is noted: 298.15 K; 101.33 kPa; Liquid; Vibrating tube method.

Among the data in the NIST ThermoML archive (doi:10.1016/j.jct.2013.12.024) are mass density values, retold here.

Numbers after ± are expanded uncertainties.

What is called mass density is mass per unit of volume.

For `Clc1cccc(Cl)c1` [1,3-dichlorobenzene], the mass density is recorded as 1282.87 ± 0.61 kg/m3.
For the compound `CCCCCCCl` [1-chlorohexane], the mass density is listed as 873.38 ± 0.3 kg/m3.
As for `c1ccccc1` [benzene], the figure is 873.45 ± 0.11 kg/m3.
